Assay results reported in patent publication US20220273664A1, “Mitochondrial Targeted Releasable Linker” (THE GOVERNING COUNCIL OF THE UNIVERSITY OF TORONTO, priority 2017, published 2022).

How the values were obtained:
[1] = system: K562 cells; assay: toxicity at different time points in K562 cells; type: cell-based; conditions: K562 leukemia cells, up to 48 hours
Excerpt: FIG. 7A is a graphical representation of the toxicity of compound 5 at different time points in K562 cells.
FIG. 7B is a graphical representation of the toxicity of compound 6 at different time points in K562 cells.
FIG. 10 is a graphical representation of the toxicity of luminespib (compound 7, as shown in FIG. 6C) at different time points in K562 cells.

[2] = system: K562 cells; assay: apoptosis measured via Annexin V staining; type: cell-based; conditions: 2.5 μM, 24 hours
Procedure: FIG. 8A is a chart illustrating apoptosis as measured via Annexin V staining of K562 cells treated for 24 hours with 2.5 μM of the compounds indicated. Cell populations were gated with annexin V+/Sytox red− cells as early apoptotic, and annexin V+/Sytox red+ cells as late apoptotic.
As controls, the parent compound luminespib (FIG. 8C, compound 7), and the empty disulfide vector (FIG. 6D) were also tested. The cells were treated with 2.5 μM of each compound.

CCNC(=O)c1noc(-c2cc(C(C)C)c(O)cc2O)c1-c1ccc(CN2CCOCC2)cc1 [luminespib, 5-(2,4-Dihydroxy-5-isopropylphenyl)-N-ethyl-4-(4-(morpholinomethyl)phenyl)isoxazole-3-carboxamide]
cell toxicity over time [1]: growth inhibition | apoptosis (early and late apoptotic cell populations) [2]: no increase
